Reference: article PMC10180488, “Novel Derivatives of Eugenol as a New Class of PPARγ Agonists in Treating Inflammation: Design, Synthesis, SAR Analysis and In Vitro Anti-Inflammatory Activity” (Molecules, 2023)
Values joined by “and” are separate entries in the source; they are usually repeats but may differ in a detail not shown here. Identical values can stand only once.

Columns and labels:
[1] = system: human red blood cells (HRBC); assay: HRBC membrane stabilization method; conditions: for HRBC membrane stabilization (percentage protection against HRBC lysis): mean ± SD (n = 3); for IC50: Homo sapiens, Erythrocyte, read-out: IC50 Values, HRBC membrane stabilization method
Protocol: The principle of this procedure is to stabilize the membrane of human red blood cells by hypotonic membrane lysis. […] Lysosomal enzyme levels typically decrease as the HRBC membrane is stabilized.
The packed cells in this blood solution were separated after centrifugation at 3000 rpm [41]. The packed cells were cleaned using an isosaline solution, and then, isosaline was used to prepare a 10% v/v suspension. This HRBC suspension was employed to estimate its anti-inflammatory properties. Different concentrations of the synthesized compounds and the reference standard were each combined with 1 mL of phosphate buffer (pH 7.4), 2 mL of hyposaline, and 0.5 mL of HRBC solution. A total of 2.0 mL of distilled water was utilized as the control. The assay mixtures were all centrifuged at 3000 rpm after 30 min of incubation at 37°C. The following formula was used to determine the percentage of stabilized HRBC membranes. Percentage protection= 100 − (OD sample/OD control) × 100

[2] = biological target: egg albumin (Gallus gallus, UniProt P01012); assay: Albumin denaturation assay; type: biochemical, hen; conditions: mean ± SD (n = 3), read-out: Percentage inhibition of denaturation of albumin
Sequence of egg albumin (P01012 2-386): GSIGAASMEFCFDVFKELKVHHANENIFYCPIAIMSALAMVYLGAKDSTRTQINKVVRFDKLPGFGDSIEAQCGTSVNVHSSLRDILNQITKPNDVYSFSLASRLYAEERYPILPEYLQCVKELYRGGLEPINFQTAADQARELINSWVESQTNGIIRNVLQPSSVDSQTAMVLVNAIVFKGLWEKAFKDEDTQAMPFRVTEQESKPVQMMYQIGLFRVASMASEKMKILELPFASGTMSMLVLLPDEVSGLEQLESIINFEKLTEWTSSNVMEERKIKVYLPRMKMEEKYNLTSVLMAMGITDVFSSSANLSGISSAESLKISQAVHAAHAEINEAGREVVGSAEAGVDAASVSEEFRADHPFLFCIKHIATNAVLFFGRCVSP
Protocol: Inflammation is accompanied by protein denaturation. Tissue protein denaturation is a well-established cause of Inflammatory illnesses. Inflammatory disorders including rheumatoid arthritis, diabetes, and cancer have been linked to the denaturation of proteins. The ability of a substance to stop proteins from becoming denaturized has a role in the prevention of inflammatory disorders. […] Denaturation of proteins is accomplished by keeping the reaction mixture in a water bath at 70 °C for […].
Minor modifications were made to Mizushima and Kobayashi’s and Sakat et al. methodologies. The reaction mixture containing 0.2 mL of egg albumin (from a fresh hen’s egg) is mixed with 2.8 mL of phosphate-buffered saline (PBS, pH 6.4) and 2 mL of synthesized compounds in varying concentrations. The mixture was then heated at 70 °C for 5 min after being incubated at 37 °C for approximately 15–20 min. After cooling, their absorbance was measured at 660 nm spectrometrically. Three duplicates of the experiment were carried out. […] Percentage inhibition = (OD control − OD sample/OD control) × 100

[3] = biological target: T1, human PPARγ- LBD (Homo sapiens, UniProt P37231); assay: Lanthascreen TR-FRET PPARγ competitive binding assay; conditions: for IC50: Lanthascreen TR-FRET competitive binding; for Raw Data / Raw Data - Background: TR-FRET
T1 construct: a mixture of a human PPARγ- LBD labelled with glutathione S-transferase (GST)
T1 sequence (P37231 238-503 limits assumed): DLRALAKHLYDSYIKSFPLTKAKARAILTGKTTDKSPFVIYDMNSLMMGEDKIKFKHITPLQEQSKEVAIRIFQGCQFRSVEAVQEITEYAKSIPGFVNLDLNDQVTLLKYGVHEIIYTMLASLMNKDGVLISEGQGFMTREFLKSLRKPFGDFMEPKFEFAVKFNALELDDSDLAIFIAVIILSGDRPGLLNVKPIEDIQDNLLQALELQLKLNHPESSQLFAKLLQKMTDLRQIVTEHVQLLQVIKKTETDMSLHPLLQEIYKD
Protocol: Using the Lanthasreen TR-FRET assay, the synthesized compounds were first preliminary tested for the PPARγ binding affinity. […] A chemical under test displaces the tracer from PPAR-LBD, which lowers the TR-FRET ratio and decreases the FRET signal Figure 8 [33].
A multimode low-volume proxy plate reader was used to read the plates after one hour of incubation. Then, a mixture of a human PPARγ- LBD labelled with glutathione S-transferase (GST), a fluorescent small pan-PPAR ligand (FluormoneTM Pan-PPAR Green), and terbium-labeled anti-GST antibody was added.

Row | SMILES | HRBC membrane stabilization (percentage protection against HRBC lysis) ([1]; 6.25 µM) [%] | HRBC membrane stabilization (percentage protection against HRBC lysis) ([1]; 12.5 µM) [%] | HRBC membrane stabilization (percentage protection against HRBC lysis) ([1]; 25 µM) [%] | HRBC membrane stabilization (percentage protection against HRBC lysis) ([1]; 50 µM) [%] | HRBC membrane stabilization (percentage protection against HRBC lysis) ([1]; 100 µM) [%] | HRBC membrane stabilization (percentage protection against HRBC lysis) ([1]; 200 µM) [%] | HRBC membrane stabilization (percentage protection against HRBC lysis) ([1]; 400 µM) | IC50 [1] [µM] | inhibition at 6.25 µM [2] [%] | inhibition at 12.5 µM [2] [%] | inhibition at 25 µM [2] [%] | inhibition at 50 µM [2] [%] | inhibition at 100 µM [2] [%] | inhibition at 200 µM [2] [%] | inhibition at 400 µM [2] [%] | IC50 [3] [µM] | Raw Data ([3]; 0.0000512 µM) [RLU] | Raw Data - Background ([3]; 0.0000512 µM) [RLU] | Raw Data ([3]; 0.000256 µM) [RLU] | Raw Data - Background ([3]; 0.000256 µM) [RLU] | other results
1 | C=CCc1ccc(OCC(=O)Nc2ccccc2C)c(OC)c1 [Compound 1c, 2-(4-Allyl-2-methoxyphenoxy)-N-(o-tolyl)acetamide] | 6.21 ± 0.38 | 14.26 ± 0.38 | 24.78 ± 0.38 | 29.08 ± 0.46 | 40.65 ± 0.28 | 50.92 ± 0.48 | 62.54% and 62.54 ± 0.36% | 79.7 | 1.77 ± 0.37 | 5.32 ± 0.37 | 8.42 ± 0.24 | 13.8 ± 0.43 | 19.2 ± 0.24 | 27.26 ± 0.24 | 34.03 ± 0.31 | 8.2 | 1.881 | 1.647 | 1.88 | 1.646 | Raw Data ([3]; 0.00128 µM): 1.88 RLU; Raw Data - Background ([3]; 0.00128 µM): 1.637 RLU; Raw Data ([3]; 0.0064 µM): 1.886 RLU; Raw Data - Background ([3]; 0.0064 µM): 1.651 RLU; Raw Data ([3]; 0.032 µM): 1.902 RLU; Raw Data - Background ([3]; 0.032 µM): 1.657 RLU; Raw Data ([3]; 0.16 µM): 1.994 RLU; Raw Data - Background ([3]; 0.16 µM): 1.76 RLU; Raw Data ([3]; 0.8 µM): 1.991 RLU; Raw Data - Background ([3]; 0.8 µM): 1.756 RLU; Raw Data ([3]; 4 µM): 1.33 RLU; Raw Data - Background ([3]; 4 µM): 1.096 RLU; Raw Data ([3]; 20 µM): 0.1617 RLU; Raw Data - Background ([3]; 20 µM): 0.02704 RLU; Raw Data ([3]; 100 µM): 0.06866 RLU; Raw Data - Background ([3]; 100 µM): -0.146 RLU
2 | C=CCc1ccc(OCC(=O)Nc2ccc([N+](=O)[O-])cc2)c(OC)c1 [Compound 1b, 2-(4-Allyl-2-methoxyphenoxy)-N-(4-nitrophenyl)acetamide] | 3.19 ± 0.28 | 9.10 ± 0.28 | 15.55 ± 0.28 | 27.49 ± 0.36 | 36.16 ± 0.48 | 45.07 ± 0.28 | 58.36 ± 0.28% | 83.2 | 2.06 ± 0.17 | 4.44 ± 0.36 | 8.42 ± 0.24 | 13.4 ± 0.24 | 17.6 ± 0.18 | 21.2 ± 0.3 | 32.2 ± 0.4 | 42.4 | 2.014 | 1.767 | 1.849 | 1.755 | Raw Data ([3]; 0.00128 µM): 1.865 RLU; Raw Data - Background ([3]; 0.00128 µM): 1.732 RLU; Raw Data ([3]; 0.0064 µM): 1.857 RLU; Raw Data - Background ([3]; 0.0064 µM): 1.671 RLU; Raw Data ([3]; 0.032 µM): 1.859 RLU; Raw Data - Background ([3]; 0.032 µM): 1.568 RLU; Raw Data ([3]; 0.16 µM): 1.896 RLU; Raw Data - Background ([3]; 0.16 µM): 1.724 RLU; Raw Data ([3]; 0.8 µM): 2.012 RLU; Raw Data - Background ([3]; 0.8 µM): 1.756 RLU; Raw Data ([3]; 4 µM): 1.779 RLU; Raw Data - Background ([3]; 4 µM): 1.596 RLU; Raw Data ([3]; 20 µM): 1.199 RLU; Raw Data - Background ([3]; 20 µM): 1.025 RLU; Raw Data ([3]; 100 µM): 0.421 RLU; Raw Data - Background ([3]; 100 µM): 0.2685 RLU
3 | O=C(O)Cc1ccccc1Nc1c(Cl)cccc1Cl [Standard Diclofenac, Diclofenac, reference compound] | 15.99 ± 0.64 | 26.93 ± 0.55 | 43.54 ± 0.48 | 52.58 ± 0.48 | 62.30 ± 0.59 | 76.87 ± 0.64 | 90.77 ± 0.36% | 48.1 | 10.2 ± 0.55 | 15.3 ± 0.43 | 28.2 ± 0.61 | 38.93 ± 0.37 | 49.5 ± 0.51 | 60.29 ± 0.36 | 68.54 ± 0.43 | – | – | – | – | – | HRBC membrane stabilization (percentage protection against HRBC lysis) ([1]; 400 µM, listed as diclofenac sodium): 90.77% and 90%
4 | C=CCc1ccc(OCC(=O)Nc2cccc(Cl)c2)c(OC)c1 [Compound 1e, 2-(4-Allyl-2-methoxyphenoxy)-N-(3-chlorophenyl)acetamide] | 12.36 ± 0.48 | 19.68 ± 0.38 | 34.50 ± 0.36 | 42.00 ± 0.56 | 51.04 ± 0.46 | 66.05 ± 0.36 | 75.09 ± 0.36% | 58.1 | 5.49 ± 0.43 | 9.47 ± 0.39 | 15.7 ± 0.24 | 22.35 ± 0.18 | 38.61 ± 0.3 | 48.21 ± 0.18 | 56.62 ± 0.37 | 11.5 | 2.087 | 1.839 | 1.860 | 1.610 | Raw Data ([3]; 0.00128 µM): 1.903 RLU; Raw Data - Background ([3]; 0.00128 µM): 1.678 RLU; Raw Data ([3]; 0.0064 µM): 1.927 RLU; Raw Data - Background ([3]; 0.0064 µM): 1.692 RLU; Raw Data ([3]; 0.032 µM): 1.988 RLU; Raw Data - Background ([3]; 0.032 µM): 1.752 RLU; Raw Data ([3]; 0.16 µM): 1.922 RLU; Raw Data - Background ([3]; 0.16 µM): 1.688 RLU; Raw Data ([3]; 0.8 µM): 1.820 RLU; Raw Data - Background ([3]; 0.8 µM): 1.683 RLU; Raw Data ([3]; 4 µM): 1.752 RLU; Raw Data - Background ([3]; 4 µM): 1.522 RLU; Raw Data ([3]; 20 µM): 1.018 RLU; Raw Data - Background ([3]; 20 µM): 0.721 RLU; Raw Data ([3]; 100 µM): 0.834 RLU; Raw Data - Background ([3]; 100 µM): 0.586 RLU
